Assay results as given in the supplement of paper PMC10307832.

Experiments:
Assay in all cases: relative viability (nuclei count vs DMSO), 5 days (fraction); higher = more cells survive
17-AAG + Crizotinib = compound: C=CCNC1=C2C[C@@H](C)C[C@H](OC)[C@H](O)[C@@H](C)/C=C(\C)[C@H](OC(N)=O)[C@@H](OC)/C=C\C=C(/C)C(=O)NC(=CC1=O)C2=O [17-AAG] + C[C@@H](Oc1cc(-c2cnn(C3CCNCC3)c2)cnc1N)c1c(Cl)ccc(F)c1Cl [Crizotinib] (partner 1 µM)
Outline: (§1)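 For relative viability, nuclei counts in treated wells were divided by those in vehicle wells. Lung cancer cell lines had been pin-tool dosed in 1536-well plates the day after seeding and cultured for 5 days, then fixed and stained in one step (final 0.05% Triton X-100, 1% formaldehyde, 1 ug/ml Hoechst) and imaged at 4×. Doses were one drug alone or a fixed anchor-drug dose plus five library-drug doses (not always all listed) in √10 steps, and values are duplicate-plate medians.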

17-AAG + Pictilisib = compound: C=CCNC1=C2C[C@@H](C)C[C@H](OC)[C@H](O)[C@@H](C)/C=C(\C)[C@H](OC(N)=O)[C@@H](OC)/C=C\C=C(/C)C(=O)NC(=CC1=O)C2=O [17-AAG] + CS(=O)(=O)N1CCN(Cc2cc3nc(-c4cccc5[nH]ncc45)nc(N4CCOCC4)c3s2)CC1 [Pictilisib] (partner 1 µM)
Outline: as §1

17-AAG + Vorinostat = compound: C=CCNC1=C2C[C@@H](C)C[C@H](OC)[C@H](O)[C@@H](C)/C=C(\C)[C@H](OC(N)=O)[C@@H](OC)/C=C\C=C(/C)C(=O)NC(=CC1=O)C2=O [17-AAG] + O=C(CCCCCCC(=O)Nc1ccccc1)NO [Vorinostat] (partner 1 µM)
Outline: as §1

17-AAG + Dasatinib = compound: C=CCNC1=C2C[C@@H](C)C[C@H](OC)[C@H](O)[C@@H](C)/C=C(\C)[C@H](OC(N)=O)[C@@H](OC)/C=C\C=C(/C)C(=O)NC(=CC1=O)C2=O [17-AAG] + Cc1nc(Nc2ncc(C(=O)Nc3c(C)cccc3Cl)s2)cc(N2CCN(CCO)CC2)n1 [Dasatinib] (partner 0.075 µM)
Outline: as §1

Row | Cell Line | relative viability (17-AAG + Crizotinib; first compound 0.00128 µM) | relative viability (17-AAG + Crizotinib; first compound 0.004048 µM) | relative viability (17-AAG + Crizotinib; first compound 0.0128 µM) | relative viability (17-AAG + Crizotinib; first compound 0.04048 µM) | relative viability (17-AAG + Crizotinib; first compound 0.128 µM) | relative viability (17-AAG + Pictilisib; first compound 0.00128 µM) | relative viability (17-AAG + Pictilisib; first compound 0.004048 µM) | relative viability (17-AAG + Pictilisib; first compound 0.0128 µM) | relative viability (17-AAG + Pictilisib; first compound 0.04048 µM) | relative viability (17-AAG + Pictilisib; first compound 0.128 µM) | relative viability (17-AAG + Vorinostat; first compound 0.00128 µM) | relative viability (17-AAG + Vorinostat; first compound 0.004048 µM) | relative viability (17-AAG + Vorinostat; first compound 0.0128 µM) | relative viability (17-AAG + Vorinostat; first compound 0.04048 µM) | relative viability (17-AAG + Vorinostat; first compound 0.128 µM) | relative viability (17-AAG + Dasatinib; first compound 0.00128 µM) | relative viability (17-AAG + Dasatinib; first compound 0.004048 µM) | relative viability (17-AAG + Dasatinib; first compound 0.0128 µM) | relative viability (17-AAG + Dasatinib; first compound 0.04048 µM) | relative viability (17-AAG + Dasatinib; first compound 0.128 µM)
1 | NCI-H1355 | 1.03 | 1.1 | 1.1 | 0.93 | 0.287 | 0.512 | 0.439 | 0.264 | 0.183 | 0.151 | 0.639 | 0.692 | 0.607 | 0.228 | 0.141 | 0.708 | 0.725 | 0.327 | 0.325 | 0.156
2 | NCI-H1437 | 0.976 | 0.806 | 0.378 | 0.126 | 0.0903 | 0.534 | 0.489 | 0.144 | 0.0969 | 0.0847 | 0.83 | 0.77 | 0.731 | 0.328 | 0.235 | 0.39 | 0.447 | 0.226 | 0.143 | 0.0854
3 | NCI-H1650 | 1.01 | 0.659 | 0.136 | 0.179 | 0.126 | 0.49 | 0.212 | 0.128 | 0.173 | 0.144 | 0.371 | 0.376 | 0.232 | 0.152 | 0.138 | 0.267 | 0.147 | 0.167 | 0.199 | 0.148
4 | NCI-H1651 | 0.828 | 0.82 | 0.828 | 0.827 | 0.571 | 0.568 | 0.54 | 0.363 | 0.148 | 0.131 | 0.538 | 0.536 | 0.545 | 0.578 | 0.492 | 0.486 | 0.415 | 0.206 | 0.186 | 0.111
5 | NCI-H1666 | 1.04 | 0.853 | 0.288 | 0.305 | 0.215 | 0.585 | 0.302 | 0.265 | 0.196 | 0.157 | 1.1 | 1.06 | 1.02 | 0.498 | 0.482 | 0.783 | 0.718 | 0.309 | 0.35 | 0.295
6 | NCI-H1734 | 0.647 | 0.681 | 0.646 | 0.195 | 0.142 | 0.447 | 0.468 | 0.361 | 0.205 | 0.151 | 0.77 | 0.851 | 0.574 | 0.271 | 0.132 | 0.482 | 0.445 | 0.356 | 0.176 | 0.105
7 | NCI-H1755 | 0.888 | 0.841 | 0.84 | 0.588 | 0.209 | 0.446 | 0.407 | 0.229 | 0.126 | 0.09 | 0.815 | 0.735 | 0.712 | 0.589 | 0.243 | 0.478 | 0.401 | 0.324 | 0.213 | 0.118
8 | NCI-H1915 | 0.89 | 0.899 | 0.871 | 0.878 | 0.223 | 0.848 | 0.992 | 0.832 | 0.207 | 0.0693 | 0.447 | 0.465 | 0.45 | 0.167 | 0.0637 | 0.29 | 0.322 | 0.218 | 0.115 | 0.0794
9 | NCI-H1944 | 1.01 | 1.18 | 1.02 | 0.799 | 0.289 | 0.352 | 0.349 | 0.324 | 0.28 | 0.24 | 0.486 | 0.506 | 0.397 | 0.257 | 0.134 | 0.198 | 0.199 | 0.175 | 0.158 | 0.15
10 | NCI-H1975 | 0.951 | 0.825 | 0.218 | 0.163 | 0.126 | 0.3 | 0.176 | 0.116 | 0.119 | 0.103 | 0.716 | 0.597 | 0.311 | 0.157 | 0.152 | 0.315 | 0.247 | 0.121 | 0.104 | 0.0938
11 | NCI-H1993 | 0.932 | 0.969 | 0.899 | 0.537 | 0.403 | 0.797 | 0.806 | 0.667 | 0.6 | 0.638 | 0.83 | 0.73 | 0.472 | 0.201 | 0.273 | 0.548 | 0.607 | 0.344 | 0.387 | 0.344
12 | NCI-H2009 | 1.12 | 1.01 | 0.99 | 0.496 | 0.0881 | 0.744 | 0.829 | 0.744 | 0.277 | 0.091 | 0.681 | 0.724 | 0.735 | 0.699 | 0.276 | 0.313 | 0.298 | 0.304 | 0.229 | 0.0827
13 | NCI-H2023 | 0.627 | 0.575 | 0.128 | 0.0736 | 0.063 | 0.292 | 0.173 | 0.0917 | 0.0989 | 0.0852 | 0.572 | 0.37 | 0.112 | 0.0782 | 0.0643 | 0.572 | 0.281 | 0.0632 | 0.0704 | 0.059
14 | NCI-H2085 | 0.913 | 0.71 | 0.971 | 0.924 | 0.637 | 0.474 | 0.416 | 0.448 | 0.475 | 0.529 | 0.787 | 0.809 | 0.861 | 0.665 | 0.599 | 0.184 | 0.271 | 0.243 | 0.292 | 0.298
